# Measurements taken from paper PMC8286840, “Identifying SARS-CoV-2 antiviral compounds by screening for small molecule inhibitors of Nsp3 papain-like protease” (Biochemical Journal, 2021).
# Structures can show the parent of a compound that is named as a salt. Where two headings read alike, the source gives them in different places.
# Tests used:
# [1] = target: T1, SARS-CoV-2 PLpro (nsp3 1564–1878) (Severe acute respiratory syndrome coronavirus 2, UniProt P0DTD1); assay: biochemical; design: FRET-quenched peptide (Pro3) cleavage by PLpro, 10 min pre-incubation, slope over 20 min, normalised to no-compound control; conditions: high concentration screen, read-out: % of control remaining
# [2] = target: T1, SARS-CoV-2 PLpro (nsp3 1564–1878); assay: biochemical; design: FRET-quenched peptide (Pro3) cleavage by PLpro, 10 min pre-incubation, slope over 20 min, normalised to no-compound control; conditions: low concentration screen, read-out: % of control remaining
structure (smiles),measurement,setting,value
CC(C)c1cccc(C(C)C)c1N1C(=O)c2ccc(O)cc2C1=O [5HPP-33],remaining activity at 3.75 µM,[1]; Well no.=6085,99.4%
same,remaining activity at 1.25 µM,[2]; Well no.=6085,101%
CC1(C)O[C@@H]2C[C@H]3[C@@H]4CCC5=CC(=O)C=C[C@]5(C)[C@@]4(F)[C@@H](O)C[C@]3(C)[C@]2(C(=O)CO)O1 [Triamcinolone (acetonide)],remaining activity at 3.75 µM,[1]; Well no.=6574,108%
same,remaining activity at 1.25 µM,[2]; Well no.=6574,105%
Nc1nc(Cl)nc2c1ncn2[C@H]1C[C@H](O)[C@@H](CO)O1 [Cladribine],remaining activity at 3.75 µM,[1]; Well no.=5101,108%
same,remaining activity at 3.75 µM,[1]; Well no.=8050,100%
same,remaining activity at 1.25 µM,[2]; Well no.=5101,107%
same,remaining activity at 1.25 µM,[2]; Well no.=8050,99%
C[C@@H]1CCCN1CCc1cc2cc(-c3ccc(C#N)cc3)ccc2o1 [ABT-239],remaining activity at 3.75 µM,[1]; Well no.=8049,101%
same,remaining activity at 1.25 µM,[2]; Well no.=8049,103%
CCc1cc(Nc2nccc(-c3c(-c4ccc(OC)c(C(=O)Nc5c(F)cccc5F)c4)nc4ccccn34)n2)c(OC)cc1N1CCC(N2CCN(S(C)(=O)=O)CC2)CC1 [GSK1904529A],remaining activity at 3.75 µM,[1]; Well no.=5013,89.5%
same,remaining activity at 1.25 µM,[2]; Well no.=5013,89.7%
CN1CC[C@]2(CCN3CCc4c(oc5ccccc45)[C@@H]3C2)N(C)C1=O [MK-912],remaining activity at 3.75 µM,[1]; Well no.=934,104%
same,remaining activity at 1.25 µM,[2]; Well no.=934,101%
CCCCN1CCC(COC(=O)c2cc(Cl)c(N)c3c2OCCO3)CC1 [SB 204070 hydrochloride],remaining activity at 3.75 µM,[1]; Well no.=1170,99.4%
same,remaining activity at 1.25 µM,[2]; Well no.=1170,97.3%
O[C@H]1[C@H](O)[C@@H](O)[C@H](O)[C@@H](O)[C@H]1O [Inositol],remaining activity at 3.75 µM,[1]; Well no.=5481,111%
same,remaining activity at 1.25 µM,[2]; Well no.=5481,111%
OC[C@H]1O[C@@H](Oc2ccc(O)cc2)[C@H](O)[C@@H](O)[C@@H]1O [Arbutin],remaining activity at 3.75 µM,[1]; Well no.=3478,101%
same,remaining activity at 1.25 µM,[2]; Well no.=3478,103%
CC(C)(C)c1cnc(CSc2cnc(NC(=O)C3CCNCC3)s2)o1 [SNS-032],remaining activity at 3.75 µM,[1]; Well no.=2845,104%
same,remaining activity at 1.25 µM,[2]; Well no.=2845,105%
C[C@@H]1C[C@H]2[C@@H]3CCC4=CC(=O)C=C[C@]4(C)[C@@]3(Cl)[C@@H](O)C[C@]2(C)[C@@]1(OC(=O)c1ccco1)C(=O)CCl [Mometasone furoate],remaining activity at 3.75 µM,[1]; Well no.=4668,103%
same,remaining activity at 3.75 µM,[1]; Well no.=6700,89.6%
same,remaining activity at 1.25 µM,[2]; Well no.=4668,103%
same,remaining activity at 1.25 µM,[2]; Well no.=6700,92.3%
O=C(O)CCCCC(CCSCc1ccccc1)SCc1ccccc1 (stereo not drawn) [CPI-613],remaining activity at 3.75 µM,[1]; Well no.=5083,88.8%
same,remaining activity at 1.25 µM,[2]; Well no.=5083,97.7%
O=C(O)/C=C/c1ccc(Cn2ccnc2)cc1 [Ozagrel],remaining activity at 3.75 µM,[1]; Well no.=1886,93.9%
same,remaining activity at 1.25 µM,[2]; Well no.=1886,91.5%
O=c1[nH]c(=O)n(C2CCCO2)cc1F (stereo not drawn) [Ftorafur],remaining activity at 3.75 µM,[1]; Well no.=2164,99.1%
same,remaining activity at 1.25 µM,[2]; Well no.=2164,97.3%
N=c1ccn2c(n1)O[C@H]1[C@H](O)[C@@H](CO)O[C@H]12 [Ancitabine hydrochloride],remaining activity at 3.75 µM,[1]; Well no.=294,93.7%
same,remaining activity at 1.25 µM,[2]; Well no.=294,98.8%
C[C@@H]1CC(=O)NN=C1c1ccc(NN=C(C#N)C#N)cc1 [Levosimendan],remaining activity at 3.75 µM,[1]; Well no.=4902,97.8%
same,remaining activity at 1.25 µM,[2]; Well no.=4902,101%
